Columns and labels:
[1] = species on record: Homo sapiens; test: Binding affinity to chloride channel (unknown origin) assessed as inhibition of control specific binding at 10 uM
[2] = molecular target: Sodium-dependent dopamine transporter (Homo sapiens) (UniProt Q01959); test: Binding affinity to human DA transporter assessed as inhibition of control specific binding at 10 uM
[3] = molecular target: T1, Transient receptor potential cation channel subfamily V member 4 (Homo sapiens, UniProt Q9HBA0); test: Antagonist activity at human TRPV4 receptor expressed in HEK293 cells assessed as inhibition of EC80 of 4alpha-PDD-stimulated calcium flux after 10 mins; type: cell-based
[4] = molecular target: T2, Transient receptor potential cation channel subfamily V member 4 (Rattus norvegicus, UniProt Q9ERZ8); test: Antagonist activity at rat TRPV4 receptor expressed in HEK293 cells assessed as inhibition of EC80 of 4alpha-PDD-stimulated calcium flux after 10 mins; type: cell-based
[5] = AUC (infinity) in Wistar rat at 1.40 mg/kg, iv; type: ADME, organism-based; design: dose 1.4 mg/kg, time infinity, route intravenous; settings: in vivo, 1.4 mg/kg
[6] = Volume of distribution at steady state in Wistar rat at 1.40 mg/kg, iv; type: ADME, organism-based; settings: in vivo, 1.4 mg/kg, read-out: Vdss
[7] = Cmax in Wistar rat at 29.73 mg/kg, po; type: ADME, organism-based; design: dose 29.73 mg/kg, route oral; settings: in vivo
[8] = molecular target: T1, Transient receptor potential cation channel subfamily V member 4; test: Antagonist activity at human TRPV4 expressed in HEK293 cells assessed as inhibition of 20% hypotonic solution-induced Ca2+ influx; type: cell-based
[9] = molecular target: T2, Transient receptor potential cation channel subfamily V member 4; test: Antagonist activity at rat TRPV4 receptor expressed in HEK293 cells assessed as inhibition of 4alpha-PDD-stimulated calcium flux after 10 mins; type: cell-based
[10] = molecular target: Transient receptor potential cation channel subfamily V member 4 (Mus musculus, UniProt Q9EPK8); test: Antagonist activity at mouse TRPV4 receptor expressed in HEK293 cells assessed as inhibition of 4alpha-PDD-stimulated calcium flux after 10 mins; type: cell-based
[11] = molecular target: Transient receptor potential cation channel subfamily V member 1 (Homo sapiens, UniProt Q8NER1); test: Antagonist activity at human TRPV1 receptor expressed in HEK293 cells assessed as inhibition of capsaicin-stimulated calcium flux after 10 mins; type: cell-based
[12] = Cmax in Wistar rat at 32.50 mg/kg, ip; type: ADME, organism-based; design: dose 32.5 mg/kg, route intraperitoneal; settings: in vivo, 32.5 mg/kg
[13] = AUC (infinity) in Wistar rat at 32.50 mg/kg, ip; type: ADME, organism-based; design: dose 32.5 mg/kg, route intraperitoneal, time infinity; settings: in vivo, 32.5 mg/kg
[14] = molecular target: Adenosine receptor A2a (Homo sapiens) (UniProt P29274); test: Binding affinity to human adenosine A2A receptor assessed as inhibition of control specific binding at 10 uM
[15] = molecular target: Adenosine receptor A3 (Homo sapiens) (UniProt P0DMS8); test: Binding affinity to human adenosine A3 receptor assessed as inhibition of control specific binding at 10 uM
[16] = molecular target: Adrenergic receptor alpha-1 (Homo sapiens) (UniProt P35348+P25100+P35368); test: Binding affinity to non-selective alpha1 adrenergic receptor (unknown origin) assessed as inhibition of control specific binding at 10 uM; type: protein assay
[17] = molecular target: Adrenergic receptor alpha-2 (Homo sapiens) (UniProt P08913+P18825+P18089); test: Binding affinity to non-selective alpha2 adrenergic receptor (unknown origin) assessed as inhibition of control specific binding at 10 uM; type: protein assay
[18] = molecular target: Beta-2 adrenergic receptor (Homo sapiens) (UniProt P07550); test: Binding affinity to human beta2 adrenergic receptor assessed as inhibition of control specific binding at 10 uM
[19] = molecular target: Cholecystokinin receptor type A (Homo sapiens) (UniProt P32238); test: Binding affinity to human CCKA receptor assessed as inhibition of control specific binding at 10 uM
[20] = molecular target: D(1A) dopamine receptor (Homo sapiens) (UniProt P21728); test: Binding affinity to human D1 receptor assessed as inhibition of control specific binding at 10 uM
[21] = molecular target: Endothelin-1 receptor (Homo sapiens) (UniProt P25101); test: Binding affinity to human ETA receptor assessed as inhibition of control specific binding at 10 uM
[22] = molecular target: GABA-A receptor; agonist GABA site (Homo sapiens) (UniProt P14867+P47870+P28472+P48169+P34903+P18505+P47869+P31644+Q16445); test: Binding affinity to GABAA receptor (unknown origin) assessed as inhibition of control specific binding at 10 uM; type: protein-complex assay
[23] = molecular target: C-C chemokine receptor type 1 (Homo sapiens) (UniProt P32246); test: Binding affinity to human CCR1 receptor assessed as inhibition of control specific binding at 10 uM
[24] = molecular target: Histamine H1 receptor (Homo sapiens) (UniProt P35367); test: Binding affinity to human H1 receptor assessed as inhibition of control specific binding at 10 uM
[25] = molecular target: Melanocortin receptor 4 (Homo sapiens) (UniProt P32245); test: Binding affinity to human MC4 receptor assessed as inhibition of control specific binding at 10 uM
[26] = molecular target: Melatonin receptor type 1A (Homo sapiens) (UniProt P48039); test: Binding affinity to human MT1 receptor assessed as inhibition of control specific binding at 10 uM
[27] = molecular target: Muscarinic acetylcholine receptor M1 (Homo sapiens) (UniProt P11229); test: Binding affinity to human M1 receptor assessed as inhibition of control specific binding at 10 uM
[28] = molecular target: Muscarinic acetylcholine receptor M2 (Homo sapiens) (UniProt P08172); test: Binding affinity to human M2 receptor assessed as inhibition of control specific binding at 10 uM
[29] = molecular target: Neuropeptide Y receptor type 1 (Homo sapiens) (UniProt P25929); test: Binding affinity to human Y1 receptor assessed as inhibition of control specific binding at 10 uM
[30] = molecular target: Neuropeptide Y receptor type 2 (Homo sapiens) (UniProt P49146); test: Binding affinity to human Y2 receptor assessed as inhibition of control specific binding at 10 uM
[31] = molecular target: Neurotensin receptor type 1 (Homo sapiens) (UniProt P30989); test: Binding affinity to human NT1 receptor assessed as inhibition of control specific binding at 10 uM
[32] = molecular target: Delta-type opioid receptor (Homo sapiens) (UniProt P41143); test: Binding affinity to human detla2 opioid receptor assessed as inhibition of control specific binding at 10 uM
[33] = molecular target: Kappa-type opioid receptor (Homo sapiens) (UniProt P41145); test: Binding affinity to human kappa opioid receptor assessed as inhibition of control specific binding at 10 uM
[34] = molecular target: Mu-type opioid receptor (Homo sapiens) (UniProt P35372); test: Binding affinity to human mu opioid receptor agonist site assessed as inhibition of control specific binding at 10 uM
[35] = molecular target: 5-hydroxytryptamine receptor 2A (Homo sapiens) (UniProt P28223); test: Binding affinity to human 5-HT2A receptor assessed as inhibition of control specific binding at 10 uM
[36] = molecular target: 5-hydroxytryptamine receptor 5A (Homo sapiens) (UniProt P47898); test: Binding affinity to human 5-HT5A receptor assessed as inhibition of control specific binding at 10 uM
[37] = molecular target: 5-hydroxytryptamine receptor 7 (Homo sapiens) (UniProt P34969); test: Binding affinity to human 5-HT7 receptor assessed as inhibition of control specific binding at 10 uM
[38] = species on record: Homo sapiens; test: Binding affinity to verapamil site of calcium channel L (unknown origin) assessed as inhibition of control specific binding at 10 uM

T1 sequence (Q9HBA0 whole entry): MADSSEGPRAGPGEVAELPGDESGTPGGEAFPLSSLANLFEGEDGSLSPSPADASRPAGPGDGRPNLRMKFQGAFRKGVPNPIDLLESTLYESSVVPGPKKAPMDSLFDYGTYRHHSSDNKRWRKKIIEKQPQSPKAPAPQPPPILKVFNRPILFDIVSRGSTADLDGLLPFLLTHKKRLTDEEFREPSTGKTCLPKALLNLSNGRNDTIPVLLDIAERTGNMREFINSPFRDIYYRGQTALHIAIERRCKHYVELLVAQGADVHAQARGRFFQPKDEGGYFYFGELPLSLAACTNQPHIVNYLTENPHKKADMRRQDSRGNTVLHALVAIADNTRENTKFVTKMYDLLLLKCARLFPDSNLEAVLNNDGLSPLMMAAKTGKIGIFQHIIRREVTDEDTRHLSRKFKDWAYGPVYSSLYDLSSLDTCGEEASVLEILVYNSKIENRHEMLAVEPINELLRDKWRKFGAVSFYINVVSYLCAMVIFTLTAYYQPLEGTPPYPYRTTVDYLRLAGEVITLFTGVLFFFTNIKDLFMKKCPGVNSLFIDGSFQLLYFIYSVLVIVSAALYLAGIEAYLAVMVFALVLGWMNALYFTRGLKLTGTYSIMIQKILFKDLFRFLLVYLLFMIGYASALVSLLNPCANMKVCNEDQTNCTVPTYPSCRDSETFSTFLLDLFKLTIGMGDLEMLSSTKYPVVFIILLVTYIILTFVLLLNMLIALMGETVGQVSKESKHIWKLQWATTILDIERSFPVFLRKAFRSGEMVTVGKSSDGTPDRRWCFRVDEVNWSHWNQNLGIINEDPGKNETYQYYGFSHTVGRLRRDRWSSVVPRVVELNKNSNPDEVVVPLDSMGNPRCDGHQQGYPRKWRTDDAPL
T2 sequence (Q9ERZ8 whole entry): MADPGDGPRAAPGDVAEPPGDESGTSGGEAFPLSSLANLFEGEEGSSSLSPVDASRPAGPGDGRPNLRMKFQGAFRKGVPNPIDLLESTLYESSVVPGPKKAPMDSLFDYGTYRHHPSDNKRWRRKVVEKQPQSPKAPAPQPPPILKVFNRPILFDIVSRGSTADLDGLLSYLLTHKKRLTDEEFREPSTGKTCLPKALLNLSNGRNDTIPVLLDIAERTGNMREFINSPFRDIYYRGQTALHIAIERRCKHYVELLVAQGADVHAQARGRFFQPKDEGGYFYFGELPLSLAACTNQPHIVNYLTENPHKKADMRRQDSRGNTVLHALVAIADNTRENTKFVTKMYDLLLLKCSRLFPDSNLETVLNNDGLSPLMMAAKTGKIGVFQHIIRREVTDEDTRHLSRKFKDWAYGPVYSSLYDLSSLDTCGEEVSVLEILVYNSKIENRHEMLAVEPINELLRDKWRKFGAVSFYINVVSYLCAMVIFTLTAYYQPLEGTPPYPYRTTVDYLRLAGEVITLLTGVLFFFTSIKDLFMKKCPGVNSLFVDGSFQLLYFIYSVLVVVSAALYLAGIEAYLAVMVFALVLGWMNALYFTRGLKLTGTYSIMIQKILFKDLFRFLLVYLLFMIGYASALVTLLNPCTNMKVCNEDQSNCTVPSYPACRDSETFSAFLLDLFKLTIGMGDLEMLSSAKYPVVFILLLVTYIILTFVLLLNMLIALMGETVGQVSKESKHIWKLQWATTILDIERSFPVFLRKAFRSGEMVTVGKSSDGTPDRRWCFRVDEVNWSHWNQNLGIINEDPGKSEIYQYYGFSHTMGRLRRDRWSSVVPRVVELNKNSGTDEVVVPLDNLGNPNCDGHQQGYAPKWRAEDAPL
Sequence of D(1A) dopamine receptor (Homo sapiens) (P21728 whole entry): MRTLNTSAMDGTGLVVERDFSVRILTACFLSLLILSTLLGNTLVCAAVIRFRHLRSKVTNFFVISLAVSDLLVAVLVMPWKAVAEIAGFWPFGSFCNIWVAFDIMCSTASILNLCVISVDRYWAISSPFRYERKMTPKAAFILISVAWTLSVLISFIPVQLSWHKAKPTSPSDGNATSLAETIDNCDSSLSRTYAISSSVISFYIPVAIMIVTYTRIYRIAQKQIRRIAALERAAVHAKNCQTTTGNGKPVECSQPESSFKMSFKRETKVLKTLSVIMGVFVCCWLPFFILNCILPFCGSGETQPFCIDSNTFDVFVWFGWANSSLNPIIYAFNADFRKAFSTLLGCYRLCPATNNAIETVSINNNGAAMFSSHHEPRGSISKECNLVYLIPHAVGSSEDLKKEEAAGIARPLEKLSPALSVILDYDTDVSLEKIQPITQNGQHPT
Sequence of Delta-type opioid receptor (Homo sapiens) (P41143 whole entry): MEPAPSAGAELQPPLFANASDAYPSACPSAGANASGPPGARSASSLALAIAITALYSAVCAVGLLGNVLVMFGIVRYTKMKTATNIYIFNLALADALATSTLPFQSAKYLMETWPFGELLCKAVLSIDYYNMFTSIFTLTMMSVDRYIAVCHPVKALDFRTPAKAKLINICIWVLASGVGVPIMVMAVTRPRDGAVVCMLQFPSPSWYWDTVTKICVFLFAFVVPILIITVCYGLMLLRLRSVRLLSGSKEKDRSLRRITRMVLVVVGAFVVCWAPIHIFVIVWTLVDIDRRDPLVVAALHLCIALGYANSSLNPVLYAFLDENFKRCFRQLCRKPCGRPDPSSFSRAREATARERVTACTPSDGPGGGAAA
Sequence of Beta-2 adrenergic receptor (Homo sapiens) (P07550 whole entry, looked up): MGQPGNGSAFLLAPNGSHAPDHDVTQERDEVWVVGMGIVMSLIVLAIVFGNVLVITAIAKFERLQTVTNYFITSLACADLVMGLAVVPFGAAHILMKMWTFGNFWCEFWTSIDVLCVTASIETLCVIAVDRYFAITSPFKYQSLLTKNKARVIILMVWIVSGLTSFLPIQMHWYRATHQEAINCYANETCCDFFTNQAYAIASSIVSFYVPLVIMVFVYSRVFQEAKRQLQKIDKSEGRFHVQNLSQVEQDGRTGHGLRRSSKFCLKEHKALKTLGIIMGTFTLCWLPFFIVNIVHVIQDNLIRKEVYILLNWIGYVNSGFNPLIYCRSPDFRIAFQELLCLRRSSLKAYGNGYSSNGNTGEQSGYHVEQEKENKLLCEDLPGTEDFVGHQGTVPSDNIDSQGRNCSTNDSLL
Sequence of Neuropeptide Y receptor type 1 (Homo sapiens) (P25929 whole entry): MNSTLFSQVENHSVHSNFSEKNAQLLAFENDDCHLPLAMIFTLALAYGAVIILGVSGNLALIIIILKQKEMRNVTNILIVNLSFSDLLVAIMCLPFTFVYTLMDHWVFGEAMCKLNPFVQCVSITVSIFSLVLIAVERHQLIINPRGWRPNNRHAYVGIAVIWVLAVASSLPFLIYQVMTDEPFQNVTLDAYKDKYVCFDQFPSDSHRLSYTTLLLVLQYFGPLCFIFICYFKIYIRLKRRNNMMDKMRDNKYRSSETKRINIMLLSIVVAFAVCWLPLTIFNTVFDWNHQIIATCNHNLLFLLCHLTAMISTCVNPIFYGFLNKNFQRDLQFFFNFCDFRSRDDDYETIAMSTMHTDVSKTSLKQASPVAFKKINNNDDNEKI
Sequence of Neurotensin receptor type 1 (Homo sapiens) (P30989 whole entry): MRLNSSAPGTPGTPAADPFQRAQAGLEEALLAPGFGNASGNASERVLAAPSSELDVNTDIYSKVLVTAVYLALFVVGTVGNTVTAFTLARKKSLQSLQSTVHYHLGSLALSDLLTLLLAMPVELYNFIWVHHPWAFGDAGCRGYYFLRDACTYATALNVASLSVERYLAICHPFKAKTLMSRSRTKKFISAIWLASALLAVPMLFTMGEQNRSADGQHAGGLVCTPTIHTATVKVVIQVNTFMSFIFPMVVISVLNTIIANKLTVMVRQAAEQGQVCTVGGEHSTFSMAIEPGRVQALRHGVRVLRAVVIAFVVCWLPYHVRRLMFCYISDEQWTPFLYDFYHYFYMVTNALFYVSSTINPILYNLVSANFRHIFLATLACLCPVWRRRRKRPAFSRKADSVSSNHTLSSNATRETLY
Sequence of Muscarinic acetylcholine receptor M1 (Homo sapiens) (P11229 whole entry): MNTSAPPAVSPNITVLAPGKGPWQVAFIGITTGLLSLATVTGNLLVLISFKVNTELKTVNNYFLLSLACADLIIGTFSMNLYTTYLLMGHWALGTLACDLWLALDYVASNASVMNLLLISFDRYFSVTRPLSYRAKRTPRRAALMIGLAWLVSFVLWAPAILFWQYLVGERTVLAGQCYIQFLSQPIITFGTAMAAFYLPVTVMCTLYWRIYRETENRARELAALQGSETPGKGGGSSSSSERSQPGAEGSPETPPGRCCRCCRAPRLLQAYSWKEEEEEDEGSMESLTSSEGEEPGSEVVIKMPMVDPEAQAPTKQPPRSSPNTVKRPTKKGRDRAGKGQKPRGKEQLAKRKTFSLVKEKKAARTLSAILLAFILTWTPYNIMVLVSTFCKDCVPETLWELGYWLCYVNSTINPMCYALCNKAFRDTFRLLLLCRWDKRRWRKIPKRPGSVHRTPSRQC
Sequence of C-C chemokine receptor type 1 (Homo sapiens) (P32246 whole entry): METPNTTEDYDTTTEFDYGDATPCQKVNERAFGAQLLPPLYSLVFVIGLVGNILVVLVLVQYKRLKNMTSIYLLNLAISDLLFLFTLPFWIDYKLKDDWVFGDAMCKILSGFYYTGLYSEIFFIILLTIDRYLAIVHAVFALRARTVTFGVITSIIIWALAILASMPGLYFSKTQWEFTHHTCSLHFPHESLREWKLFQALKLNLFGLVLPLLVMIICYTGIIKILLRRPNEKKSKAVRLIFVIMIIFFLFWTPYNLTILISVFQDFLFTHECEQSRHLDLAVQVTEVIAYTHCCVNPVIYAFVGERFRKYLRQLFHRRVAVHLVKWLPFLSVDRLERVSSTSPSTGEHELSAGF
Sequence of Adenosine receptor A3 (Homo sapiens) (P0DMS8 whole entry): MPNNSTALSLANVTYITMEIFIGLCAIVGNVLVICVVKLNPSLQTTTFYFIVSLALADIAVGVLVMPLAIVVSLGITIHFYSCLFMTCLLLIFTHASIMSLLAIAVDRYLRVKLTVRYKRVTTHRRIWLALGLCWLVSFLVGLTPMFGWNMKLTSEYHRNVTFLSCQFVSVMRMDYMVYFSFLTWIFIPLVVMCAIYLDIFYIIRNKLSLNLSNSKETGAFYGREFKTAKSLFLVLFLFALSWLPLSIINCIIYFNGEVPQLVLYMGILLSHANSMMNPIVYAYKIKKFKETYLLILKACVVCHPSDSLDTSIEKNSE

Q: Which results are given for `CC(C)N1CCN(S(=O)(=O)c2ccc(NC(=O)c3ccc(C(F)(F)F)cc3[N+](=O)[O-])cc2)CC1`?
A: inhibition [1]: 24%; inhibition [2]: 10%; IC50 [3]: 420 nM; IC50 [4]: 660 nM; AUC(0-inf) [5]: 1010 ng·h/mL; Vd [6]: 1.44 L/kg; Cmax [7]: 3820 ng/mL; IC50 [8]: 570 nM; IC50 [9]: 120 nM; IC50 [10]: 57 nM; IC50 [11]: > 10 µM; Cmax [12]: 10600 ng/mL; AUC(0-inf) [13]: 16500 ng·h/mL; inhibition [14]: -7%; inhibition [15]: 10%; inhibition [16]: 6%; inhibition [17]: -1%; inhibition [18]: 1%; inhibition [19]: 3%; inhibition [20]: 1%; inhibition [21]: -4%; inhibition [22]: 3%; inhibition [23]: -5%; inhibition [24]: 4%; inhibition [25]: -8%; inhibition [26]: 5%; inhibition [27]: 76%; inhibition [28]: 6%; inhibition [29]: -8%; inhibition [30]: 1%; inhibition [31]: -6%; inhibition [32]: 6%; inhibition [33]: 3%; inhibition [34]: 9%; inhibition [35]: 28%; inhibition [36]: 0%; inhibition [37]: -5%; inhibition [38]: 7%
